Laboratory results: EP4324461A1, “(E)-N-CINAMOYLAMINOALKANOLES WITH MELANOGENESIS INHIBITORY ACTIVITY” (UNIWERSYTET JAGIELLONSKI, priority 2022, dated 2024)
Where two headings read alike, the source gives them in different places.

Assays:
[1] = Lipophilicity coefficient RM0 by reversed phase thin layer chromatography; assay type: physicochemical; settings: RP-18 TLC, methanol / 100 mM phosphate buffer pH = 7.4
Outline: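 Reversed-phase TLC on RP-18 F254 silica, with methanol/100 mM phosphate buffer pH 7.4 mobile phases of 95–65% (v/v) methanol, at room temperature, in duplicate. Spots were visualized under UV at 254 nm. RM = log(1/Rf − 1) was plotted linearly against methanol content to derive RM0.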

[2] = system: tyrosinase from mushroom; assay: Inhibition of commercial mushroom tyrosinase (L-DOPA or L-tyrosine substrate); assay type: biochemical
Outline: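 Tyrosinase (1U/well or 3U/well) in 50 mM phosphate buffer pH 6.8 with compound at final 500, 250 or 125 µM; L-DOPA (diphenolase) or L-tyrosine (monophenolase) added in separate runs. Absorbance at 475 nm after 25 min; % inhibition versus DMSO control.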

[3] = system: B16-F10 murine melanoma cell line; assay: Cytotoxicity in B16-F10 cells (MTT); assay type: cell-based; settings: 48 h
Outline: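 Cells in F10-Ham with 1% FBS exposed to various compound concentrations for 48 h after 24 h pre-culture. MTT read-out: formazan dissolved in DMSO, absorbance at 570 nm. Viability expressed as percent of DMSO control (AT/AC×100).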

[4] = system: Fibroblasts (BJ); assay: Safety, MTT test in fibroblasts; assay type: cell-based; settings: 48 hours
Experimental: In order to test the safety of the compounds, both normal human cells were used: keratinocytes (HaCaT), fibroblasts (BJ), primary melanocytes that occur in the skin, as well as human cancer cells: the hepatocarcinoma line HepG2 and the neuroblastoma line SH-SY5Y, which are considered a model for the assessment of hepatocytotoxicity and neurocytotoxicity. The concentrations of the tested compounds in the range of 250-100 µM were used in the studies. The cell lines used in the research were purchased from the American Type Culture Collection (ATCC) and were cultured in media recommended by the manufacturer with the addition of FBS and antibiotics in an incubator ensuring appropriate culture conditions, i.e. humidity, temperature and CO2 concentration. Cells were seeded into multiwell plates and incubated with the test compounds for 48 hours. After this time, MTT and LDH tests were performed to assess cell viability. The MTT test is based on the ability to transform the substrate: [3-(4,5-dimethyl-2-thiazolyl)-2,5-diphenyl-2H-tetrazolium bromide into a colored product only by living cells. The absorbance at 570 nm, which corresponds to the absorption maximum for the product, is directly proportional to cell viability. The LDH test is based on testing the activity of the enzyme lactate dehydrogenase in the culture medium, which is released from cells as a result of damage to the cell membrane, e.g. as a result of cell death. Triton X-100 was used as a positive control in the test. The determination is colorimetric, the substrate is transformed by the released enzyme into a colored product, an increase in absorbance indicates a larger amount of the released enzyme, and thus confirms greater damage to cell membranes. Tables 7 and 8 present the results obtained, which correspond to the viability of cells incubated with the compounds in relation to the viability of cells constituting a control sample, i.e. incubated with the solvent (DMSO) at the same concentration as in the case of the groups tested in the MTT test or in relation to the results obtained for the Triton X-100 positive control in the LDH test. They indicate that the compounds are safe at the concentrations tested. Table 7. Viability of tested normal human cell lines: keratinocytes (HaCaT), fibroblasts (BJ) and primary melanocytes after incubation with the tested compounds - determination in the MTT test (% of solvent control ± SD) and LDH (percentage of positive control - Triton X-100.

[5] = L-DOPA, read-out: Tyrosinase inhibition with L-DOPA, IC50
[6] = L-tyrosine, read-out: Tyrosinase inhibition with L-tyrosine, IC50

Row | Structure (SMILES) | RM0 [1] | Tyrosinase inhibition with L-DOPA [%] ([2]; L-DOPA) | Tyrosinase inhibition with L-tyrosine [%] ([2]; L-tyrosine) | Cytotoxicity study in B16F10 cells % viability ([3]; 150 µM) [%] | Cytotoxicity study in B16F10 cells % viability ([3]; 200 µM) [%] | Cytotoxicity study in B16F10 cells % viability ([3]; 250 µM) [%] | Fibroblasts (BJ) MTT ([4]; 100 µM) | Fibroblasts (BJ) MTT ([4]; 150 µM) | Fibroblasts (BJ) MTT ([4]; 200 µM) | Fibroblasts (BJ) MTT ([4]; 250 µM) | IC50 [2, 5] [µM] | IC50 [2, 6] [µM] | Tyrosinase inhibition with L-DOPA [%] ([2]; L-DOPA, 250 µM)
1 | Cc1ccc(/C=C/C(=O)NCCCCCO)cc1 [H-415/21, (2E)-N-(5-hydroxypentyl)-3-(4-methylphenyl)prop-2-enamide] | 2.49 | 30.43±0.88% (500 µM) | 25.04±5.67% (500 µM) | 85.2 | 90.3 | 75.7 | 102.12±2.71 % of solvent control | 101.92±2.88 % of solvent control | 96.13±3.64 % of solvent control | 92.86±4.30 % of solvent control | – | – | –
2 | O=C(/C=C/c1ccc(Cl)cc1)NCCCO [H-330/21, (2E)-3-(4-chlorophenyl)-N-(3-hydroxypropyl)prop-2-enamide] | 1.94 | 55.32±1.39% (500 µM) | 82.49±0.65% (500 µM) | 78.6 | 82.9 | 83.9 | 100.54±5.01 % of solvent control | 94.85±3.51 % of solvent control | 85.52±3.08 % of solvent control | 76.51±1.80 % of solvent control | 265 | 106 | –
3 | O=C(/C=C/c1ccc(Cl)cc1)NCCCCCO [Compound A-111, (2E)-3-(4-chlorophenyl)-N-(5-hydroxypentyl)prop-2-enamide] | 2.79 | – | 88.98±0.98% (500 µM) | 88.2 | 95.6 | 89.7 | 99.88±5.25 % of solvent control | 100.94±3.37 % of solvent control | 98.94±4.04 % of solvent control | 94.51±5.03 % of solvent control | 147 | 37 | 59.94±1.56% (250 µM)
4 | O=C(/C=C/c1ccc(Cl)cc1)NCCO [H-427/21, (2E)-3-(4-chlorophenyl)-N-(2-hydroxyethyl)prop-2-enamide] | 1.93 | 55.77±0.77% (500 µM) | 67.45±2.66% (500 µM) | 73.7 | 80.2 | 77.8 | 101.82±3.99 % of solvent control | 100.76±3.34 % of solvent control | 100.37±3.92 % of solvent control | 98.13±2.81 % of solvent control | 278 | 196 | –
5 | O=C(/C=C/c1ccccc1)NCCCCCCO [H-425/21, (E)-N-(6-hydroxyhexyl)cinnamic acid amide] | 2.40 | 34.63±2.46% (500 µM) | 44.61±5.99% (500 µM) | 109.2 | 98.4 | 86.9 | – | – | – | – | – | 764 | –
6 | O=C(/C=C/c1ccccc1)NCCCCCO [Compound A-133, (2E)-N-(5-hydroxypentyl)-3-phenylprop-2-enamide] | 2.15 | 47.96±1.83% (500 µM) | 58.56±4.58% (500 µM) | 101.7 | 94.9 | 95.6 | 99.41±5.96 % of solvent control | 91.68±3.64 % of solvent control | 87.76±2.71 % of solvent control | 82.50±3.99 % of solvent control | 523 | 450 | –
